Assay results: paper PMC5503534, “Stable aneuploid tumors cells are more sensitive to TTK inhibition than chromosomally unstable cell lines” (Oncotarget, 2017)
Like-named read-outs stand apart in the source and are kept apart here.

Experiments:
[1] = tested on: A-172 glioblastoma cell line; assay: Cell proliferation assay (ATPlite), A-172; format: cell-based, human; conditions: Homo sapiens, 120 h, 5 day proliferation assay
Method: (§1) Cell proliferation assays were carried out as described using ATPlite 1step™ (Perkin Elmer, Groningen, The Netherlands). Exposure time was 72 or 120 hours as indicated in the Legends to the Figures. Percentage growth was calculated, relative to the growth of unexposed cells, and relative IC50s were fitted using a four-parameter logistics curve (XLfit 5.3, IDBS). For Figure 4A and 7 dose response curves were redrawn in Prism. To compare the inhibitory potency of compounds in proliferation assays with HCT 116 parental and tetraploid clones, pIC50 (−^10logIC50) values were compared in three independent experiments. A two-tailed Student's t-test was performed to determine whether differences in sensitivity (ΔpIC50) were statistically significant. Caspase 3/7 activity of cancer cells was measured using Caspase-Glo 3/7 Assay kit (cat no. G8093, Promega, Madison USA). Viability of T-ALL cell samples was determined using ATPlite and exposure of 72 hours as described previously.

[2] = tested on: HCT 116 colon carcinoma cell line; assay: Cell proliferation assay (ATPlite), HCT 116; format: cell-based, human; conditions: for IC50: Homo sapiens, HCT-116, 120 h
Method: as §1

[3] = tested on: post-tetraploid HPT1 cells; assay: Cell proliferation assay, post-tetraploid HPT1; format: cell-based, human; conditions: HPT1, five days
Method: (§2) Cancer cell lines and hTERT-RPE1 retinal pigment epithelial cells were purchased from the American Type Culture Collection (ATCC) (Manassas, VA, U.S.A.) from 2011 to 2014 [41] and cultured in ATCC-recommended media. All experiments were carried out within nine passages of the original vials from ATCC who authenticated the cancer cell lines by short tandem repeat analysis. We verified the mutant status of seven frequently mutated cancer genes (i.e., BRAF, CDKN2A, CTNNB1, EGFR, KRAS, PIK3CA and TP53) by full exome or targeted sequencing. Sequencing results were compared to COSMIC version 75 of the Genomics of Drug Sensitivity in Cancer data base and provided additional authentication of the identity of the cell lines. The isolation and characterization of post-tetraploid clones from HCT 116 has been described previously. The mutation status of the CDKN2A, CTNNB1, KRAS and PIK3CA genes were confirmed by sequence analysis in both the HCT 116 parental cell line and post-tetraploid clones. All experiments were carried out within nine passages of the original cell stocks that were transferred from the Max Planck Institute of Biochemistry (Martinsried, Germany) to Netherlands Translational Research Center.
as §1

[4] = tested on: DoTc2 4510 cervix carcinoma cell line; assay: Cell proliferation assay (ATPlite), DoTc2 4510; format: cell-based, human; conditions: Homo sapiens, 120 h, 5 day proliferation assay
Method: as §1

[5] = tested on: OVCAR-3 ovary adenocarcinoma cell line; assay: Cell proliferation assay (ATPlite), OVCAR-3; format: cell-based, human; conditions: Homo sapiens, 120 h, 5 day proliferation assay
Method: as §1

[6] = tested on: 66 cancer cell lines (44 cell lines); design: method as in earlier work; conditions: 5 days; geometric average in 66 cancer cell lines; cited from earlier work
[7] = tested on: patient-derived colorectal carcinoma organoids; assay: Organoids drug sensitivity and viability assay; format: cell-based, human; conditions: Homo sapiens
Method: The establishment and characterization of the human colon cancer organoids has been described. The organoids were cultured in drops of Geltrex LDEV-Free Reduced Growth Factor Basement Membrane Matrix (Gibco, cat no. A1413202) in DMEM/F12 medium (Thermo), supplemented with 1% (v/v) penicillin/streptomycin (Gibco), 1% Hepes buffer, pH7.5, 1% L-glutamine (Gibco), 1 μg/mL R-spondin (Sigma), 100 ng/mL Noggin (Peprotech), B27 vitamin A-free (Invitrogen, cat no. 12587010), 1 mM n-acetyl cysteine (Sigma), 10 mM nicotinamide (Sigma), 50 ng/mL EGF (BD Biosciences), 500 nM A83-01 (Tocris), 10 μM SB202190 (Sigma), 10 μM Y-27632 (Sigma) and 10 nM Prostaglandin E2 (Cayman). Medium was refreshed every four days and organoids were splitted by treatment with TryPLE Express (Gibco, cat. no. 12604013).
Organoids were dissociated by TryPLE Express treatment and filtered using a 40 μm nylon cell strainer (Falcon). The organoids were re-suspended in Geltrex at a density of 250,000 cells/mL and seeded in the wells of 96-well plates (Corning, cat no. 3903) at 10 μl per well. Compounds were added four days after plating and 72 hours later viability was determined using Cell-Titer Glo 3D Cell Viability Assay (Promega, Madison USA). Experiments were performed in three biological replicates and technical triplicates were averaged per experiment.

[8] = tested on: post-tetraploid HPT4 cells; assay: Cell proliferation assay, post-tetraploid HPT4; format: cell-based, human; conditions: HPT4, five days
Method: as §2, §1

[9] = tested on: post-tetraploid HPT2 cells; assay: Cell proliferation assay, post-tetraploid HPT2; format: cell-based, human; conditions: HPT2, five days
Method: as §2, §1

[10] = tested on: HCT 116 vs HPT1, -2 and -4; assay: Drug sensitivity analysis, HCT116 diploid versus tetraploids; format: cell-based, human
Method: as §1

[11] = biological target: T1, TTK kinase domain (Homo sapiens, UniProt P33981); assay: Surface plasmon resonance binding kinetics, TTK; conditions: SPR, geometric average
T1 construct: using bacterially expressed TTK kinase domain and Sf9 insect cell-expressed Aurora B; purchased Carna Biosciences, Inc., Kobe, Japan
T1 sequence (P33981 525-791 limits assumed): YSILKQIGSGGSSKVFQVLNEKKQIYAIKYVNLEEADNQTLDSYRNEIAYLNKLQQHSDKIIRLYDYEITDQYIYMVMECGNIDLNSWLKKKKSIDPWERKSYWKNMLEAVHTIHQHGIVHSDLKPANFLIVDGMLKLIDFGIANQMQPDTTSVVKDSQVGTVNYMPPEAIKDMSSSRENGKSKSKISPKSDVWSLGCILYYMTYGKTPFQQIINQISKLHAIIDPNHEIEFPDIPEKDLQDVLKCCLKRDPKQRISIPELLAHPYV
Source text: (§3) Originally, the compound was identified in a phenotypic screen for molecules that can induce stem-cell like phenotypes. Later this property was attributed to its ability to inhibit the mitotic kinase Aurora B [39].

[12] = tested on: MG-63 osteosarcoma cell line; assay: Cell proliferation assay (ATPlite), MG-63; format: cell-based, human; conditions: Homo sapiens, 120 h, 5 day proliferation assay
Method: as §1

[13] = biological target: T2, full-length Aurora B (Homo sapiens, UniProt Q96GD4); assay: Surface plasmon resonance binding kinetics, Aurora B; conditions: SPR, geometric average
T2 construct: to the kinase domain of TTK and full-length Aurora B; purchased Carna Biosciences, Inc., Kobe, Japan; host or cells: Sf9 insect cells
T2 sequence (Q96GD4 whole entry, the tested form may be a part): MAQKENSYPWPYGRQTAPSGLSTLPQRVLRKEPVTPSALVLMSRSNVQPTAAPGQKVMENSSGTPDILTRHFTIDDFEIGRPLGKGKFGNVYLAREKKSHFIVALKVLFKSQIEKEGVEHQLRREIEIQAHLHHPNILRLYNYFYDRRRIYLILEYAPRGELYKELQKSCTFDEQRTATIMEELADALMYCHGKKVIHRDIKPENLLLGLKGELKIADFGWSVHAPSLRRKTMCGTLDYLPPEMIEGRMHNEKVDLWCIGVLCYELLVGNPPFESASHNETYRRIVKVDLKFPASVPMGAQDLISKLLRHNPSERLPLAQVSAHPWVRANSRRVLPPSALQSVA
Source text: as §3

[14] = Homo sapiens, 120 h, geometric average of three experiments

c1nc2nc(Nc3ccc(N4CCOCC4)cc3)nc(NC3CCCCC3)c2[nH]1 [reversine]
IC50 [1]: 158 nM
Eff. (%) ([2]; HCT 116, five days, maximum inhibitory effect, average of three experiments): 77%
IC50 ([2]; 5 day proliferation assay, HCT 116 (Suppl. Table 1)): 175 nM
IC50 ([2]; HCT 116 near-diploid, five days, geometric average of three experiments (Suppl. Table 2A)): 242 nM
Efficacy (%) ([3]; average of three experiments): 58%
IC50 [3, 14]: 208 nM
IC50 [4]: 416 nM
IC50 [5]: 441 nM
IC50 [6]: 239 nM
IC50 ([7]; 72 h, organoid p14, three days, read-out: IC50): 493 nM
IC50 ([7]; 72 h, organoid p14, three days, read-out: pIC50 (converted)): 468 nM
IC50 ([7]; 72 h, organoid p18, three days, read-out: IC50): 285 nM
IC50 ([7]; 72 h, organoid p18, three days, read-out: pIC50 (converted)): 269 nM
IC50 ([7]; 72 h, organoid p28, three days, read-out: IC50): 757 nM
IC50 ([7]; 72 h, organoid p28, three days, read-out: pIC50 (converted)): 646 nM
IC50 ([7]; All organoids, geometric average, read-out: pIC50 (converted)): 437 nM
Efficacy (%) ([8]; average of three experiments): 33%
IC50 [8, 14]: 159 nM
Efficacy (%) ([9]; average of three experiments): 44%
IC50 [9, 14]: 253 nM
Δeff. (%) ([10]; HCT 116 vs HPT1, -2 and -4): −32%
Phenotype (efficacy) ([10]; HCT 116 vs HPT1, -2 and -4, based on % effect): resistant
Phenotype (potency) ([10]; HCT 116 vs HPT1, -2 and -4, 'resistant' indicates that tetraploids are resistant): sensitive
ΔpIC50 ([10]; average log shift in sensitivity between parental and tetraploids): −0.08
kd [11]: 8.86e-05 s⁻¹
IC50 [12]: 434 nM
kd [13]: 0.00484 s⁻¹
